# In patent US10314816B2, “Antimicrobial compounds, compositions and methods of use thereof” (Wisconsin Alumni Research Foundation, priority 2012, dated 2019):
# How the values were obtained:
# [1] = tested on: rabbit red blood cells (RBC); assay: Rabbit red blood cell (RBC) hemolysis assay; assay type: cell-based
# Protocol: Rabbit red blood cell (RBC) hemolysis assay. Rabbit RBCs from Lampire Biological Laboratories were used. Prior to preparing the RBCs, compound-containing PBS solutions were serially diluted into a 96-well plate (a final volume of 100 μL/well). The RBC lysis solution (Epicentre Biotechnology) was included as a positive control for hemolysis. For each assay, 1 mL of the RBC suspension was removed from the stock bottle and centrifuged for 2 minutes at 2000 rpm. The pelleted cells were resuspended in sterile PBS solution and centrifuged again. The cells were resuspended in PBS and diluted 5-fold into the same solution. 100 μL aliquots of RBCs were added into wells of a 96-well plate that contained an equal volume of a solution of compound in PBS. The plates were incubated for varying amounts of time depending on the microbial assay conditions to be emulated. For MIC-like conditions, plates were incubated for at least 17 hours at 30° C. or 37° C. For MSC-like conditions, the incubation time was either 2 hours or 6 hours at 30° C. or 37° C. During the incubation, un-lysed RBCs settled at the bottom of the wells. At the end of the incubation, 90 μL of the supernatant was transferred into the wells of a fresh 96-well plate, and the absorbance of the heme at 2=405 nm was measured.
# To test the toxicity of DCAP against mammalian membranes, the hemolysis of rabbit red blood cells (RBC) was measured. These experiments were performed using conditions that closely mimicked the MIC and MSC assays. RBCs were treated with CCCP and DCAP at their MICs for the time periods used (17 hours) to determine the MIC of C. crescentus and S. aureus. After incubation, the absorbance of heme released from lysed RBCs was measured.
# The MSC assay conditions were also reproduced to measure toxicity against RBCs. First, the minimum time required to obtain the MSC for DCAP treatment of C. crescentus (2 hours) and S. aureus (6 hours; data not shown) was determined.
# [2] = tested on: S. aureus FRI 100; assay: Minimum stationary-bactericidal concentration (MSC); assay type: cell-based, Staphylococcus aureus; conditions: for MSC: S. aureus FRI 100, stationary cells, 24 hours
# Protocol: Determination of the Minimum Stationary-Bactericidal Concentration.
# Cultures of C. crescentus (24 hour incubation) and S. aureus cells (5 day incubation) were grown from single colonies. Cells were collected by centrifugation (8500 rpm for 2.5 minutes) and re-suspended in M2 salt solution (for C. crescentus; 1.74 g/L Na2HPO4, 1.06 g/L KH2PO4, and 0.5 g/L NH4Cl) or phosphate-buffered saline (for S. aureus; PBS, Fisher Scientific). The centrifugation and re-suspension was repeated two more times. After the repeated washing steps, the cell suspension was diluted 10-fold to achieve approximately 10^8 cells/mL. Aliquots of the diluted cell suspension were transferred into wells of a 96-well plate (100 μL/well), and 2-fold serial dilutions were performed to test a range of antibiotic concentrations. The plate was sealed with Parafilm® and incubated for 24 hours at room temperature in the dark. After incubation, 50 μl was removed from each well to spread on nutrient agar plates (1.5% agar in PYE for C. crescentus, and LB for S. aureus). The colonies on each plate were counted after growing the cells for 1-2 days. For determining the kinetics of bactericidal activity of DCAP on stationary cultures, the washed cells were diluted by 100-fold in appropriate solutions and tested using a single concentration of the compound while including a DMSO control sample. Cell suspensions were kept in closed microcentrifuge tubes instead of the wells of 96-well plates. 100 μL of the suspensions was removed for plating at each time point. All MSC experiments were performed in static conditions.
# In addition to its activity against actively growing bacteria, DCAP kills cells in stationary phase (Table 3). This property was tested against C. crescentus and S. aureus. […] To ensure that bacteria were deprived of nutrients, the cells were grown into late stationary phase (i.e., 24 hours for C. crescentus and 5 days for S. aureus). These cells were collected, suspended in isotonic solutions devoid of amino acids or sugars, and treated with a small molecule (DMSO, DCAP, CCCP or ampicillin). Cell viability was measured over time by plating culture aliquots on non-selective, solid growth media. The minimum concentration of antibiotic required to completely eliminate colony formation was designated as the minimum stationary-bactericidal concentration (MSC). […] CCCP inhibited the proliferation of C. crescentus cells regardless of their physiological status. However, the MSC of CCCP for S. aureus was >300-fold higher than the MIC. This dramatic decrease in the effectiveness of CCCP in S. aureus may be due to changes in membrane composition as cells adjust their metabolism in nutrient-deprived conditions.
# [3] = tested on: C. crescentus cells; assay: Measurement of ΔΨ using DiOC2, fluorescence microscopy; assay type: cell-based, Caulobacter crescentus; conditions: 20 minutes of treatment, p<0.001
# Protocol: For experiments with C. crescentus cells, the cells were prepared by diluting the overnight culture 10-fold into fresh PYE medium. The diluted culture was grown for 1 hour at 200 rpm and 30° C. The cells were treated with compounds for 10 minutes at room temperature, DiOC2 dye was added to a final concentration of 30 μM, and incubated for 10 minutes. After labeling, small aliquots (1-2 μl) of the suspensions of cells were transferred onto 1% agarose pads for fluorescence microscopy. A Nikon Eclipse TE2000E inverted microscope with an Andor DU-895 EMCCD camera, a Perfect Focus system, and an encoded z-stage were used for phase contrast and epifluorescence microscopy. For detecting green and red fluorescence of the dye, the following wavelengths (λex/λem): 484/520 nm and 555/620 nm, respectively, were used. Acquired images were analyzed using the MATLAB-based script MicrobeTracker. […] The segmentation was applied to the fluorescence images to calculate the fluorescence intensity for individual cells. A separate MATLAB script was written to process the results from MicrobeTracker, in which the cell-area normalized ratio of red to green fluorescence for each cell was calculated.
# ΔΨ was measured for two model bacteria, C. crescentus (Gram-negative) and Bacillus subtilis (Gram-positive), in the absence and presence of DCAP. […] DiOC2 emits green fluorescence (λ=530 nm) in its monomeric form. […]
# [4] = compounds at their MICs for C. crescentus and S. aureus, 17 hours
Structure (SMILES),"Hemolysis of rabbit RBCs [1, 4]","Hemolysis of rabbit RBCs ([1]; high concentration, MSC conditions for S. aureus (FIG. 8C))",MSC [2],"MSC relative to MIC ([2]; S. aureus, stationary vs growing cells)",ΔΨ (λ576/λ530 of DiOC2) [3],"Hemolysis of rabbit RBCs ([1]; MSC assay conditions, 2 hours (C. crescentus) and 6 hours (S. aureus))","Hemolysis of rabbit RBCs ([1]; higher concentrations of DCAP (i.e., 50 μM), 17 hours)","Minimum time required to obtain the MSC ([2]; S. aureus, data not shown)"
"N#CC(C#N)=NNc1cccc(Cl)c1 [CCCP, carbonyl cyanide m-chlorophenyl hydrazone]",did not significantly disrupt RBC membranes,toxic to RBCs at a high concentration,>400 µM,> 300 fold,significant decrease in λ576/λ530,,,
"OCC(CO)(CO)NCC(O)Cn1c2ccc(Cl)cc2c2cc(Cl)ccc21 (centres unmarked) [DCAP, 2-((3-(3,6-dichloro-9H-carbazol-9-yl)-2-hydroxypropyl)amino)-2-(hydroxymethyl)propane-1,3-diol]",did not significantly disrupt RBC membranes,,75 µM,,significant decrease in λ576/λ530,no significant toxicity,moderately toxic to RBCs,6 h
